# Laboratory results taken from US20030229087A1 (priority 2002, published 2003).
# Key:
# Type in all cases: in vivo
# [1] = system: Phytophthora infestans; assay: whole plant or invertebrate
# [2] = system: Sphaerotheca fuliginea; assay: whole plant or invertebrate; details: for % Efficacy: in vivo
# [3] = system: Erysiphe graminis f.sp. hordei; assay: Erysiphe test (barley)/protective; details: Blumeria graminis, 168 h, protective, application rate 12.5 g/ha, evaluation 7 days after inoculation, read-out: Efficacy in %
# Description: Erysiphe Test (Barley)/Protective
# (§1) To produce a suitable preparation of active compound, 1 part by weight of active compound or active compound combination is mixed with the stated amounts of solvent and emulsifier, and the concentrate is diluted with water to the desired concentration.
# (§2) To test for protective activity, young plants are sprayed with the preparation of active compound at the stated application rate.
# After the spray coating has dried on, the plants are dusted with spores of Erysiphe graminis f.sp. hordei.
# (§3) The plants are placed in a greenhouse at a temperature of approximately 20° C. and a relative atmospheric humidity of approximately 80% to promote the development of mildew postules.
# (§4) Evaluation is carried out 7 days after the inoculation. 0% means an efficacy which corresponds to that of the control, whereas an efficacy of 100% means that no infection is observed.
# [4] = system: Pyrenophora teres; assay: Pyrenophora teres test (barley)/protective; details: protective, application rate 25 g/ha, evaluation 7 days after inoculation
# Description: Pyrenophora teres Test (Barley)/Protective
# as §1
# (§5) To test for protective activity, young plants are sprayed with the preparation of active compound at the stated application rate. After the spray coating has dried on, the plants are sprayed with a conidia suspension of Pyrenophora teres. The plants remain in an incubation cabin at 20° C. and 100% relative atmospheric humidity for 48 hours.
# The plants are then placed in a greenhouse at a temperature of approximately 20° C. and a relative atmospheric humidity of approximately 80%.
# as §4
# [5] = system: Leptosphaeria nodorum; assay: Leptosphaeria nodorum test (wheat)/protective; details: protective, application rate 25 g/ha, evaluation 10 days after inoculation
# Description: Leptosphaeria nodorum Test (Wheat)/Protective
# To produce a suitable preparation of active compound, 1 part by weight of active compound or active compound combination is mixed with the stated amounts of solvents and emulsifier, and the concentrate is diluted with water to the desired concentration.
# as §5, with “spore” for “conidia”, “Leptosphaeria nodorum.” for “Pyrenophora teres.”
# The plants are placed in a greenhouse at a temperature of approximately 15° C. and a relative atmospheric humidity of 80%.
# Evaluation is carried out 10 days after the inoculation. 0% means an efficacy which corresponds to that of the control, whereas an efficacy of 100% means that no infection is observed.
# [6] = system: Erysiphe graminis f.sp. tritici; assay: Erysiphe test (wheat)/protective; details: protective, application rate 6.25 g/ha, evaluation 7 days after inoculation
# Description: Erysiphe Test (Wheat)/Protective
# as §1, §2
# After the spray coating has dried on, the plants are dusted with spores of Erysiphe graminis f.sp. tritici.
# as §3, §4
# [7] = Phytophthora infestans, in Solanum lycopersicum, 72 h, read-out: % Efficacy
# [8] = Podosphaera fuliginea, in Cucumis sativus, 240 h, read-out: % Efficacy
compound,measurement,setting,value
"Cc1cc(C)nc(Nc2ccccc2)n1 [pyrimethanil (XLIX)(48), pyrimethanil]",pest or weed control at 10 g/ha,[1]; [7],11%
same,pest or weed control at 5 g/ha,[2]; [8],11%
"O=C(Nc1ccccc1)N(Cc1ccc(Cl)cc1)C1CCCC1 [pencycuron (XXXVIII) (37), pencycuron]",pest or weed control at 10 g/ha,[1]; [7],14%
same,pest or weed control at 12.5 g/ha,[3],50%
same,pest or weed control at 5 g/ha,[2]; [8],30%
"CO/N=C(/C(=O)OC)c1ccccc1CO/N=C(\C)c1cccc(C(F)(F)F)c1 [trifloxystrobin (LXXVI) (75), trifloxystrobin]",pest or weed control at 2 g/ha,[2]; [8],43%
"[Cl-].[Cu+2].[Cu+2].[OH-].[OH-].[OH-] [copper oxychloride (LXIV) (63), copper oxychloride]",% Efficacy,[2],11%
"CC#Cc1cc(C)nc(Nc2ccccc2)n1 [mepanipyrim (L) (49), mepanipyrim]",pest or weed control at 5 g/ha,[1]; [7],0%
same,pest or weed control at 10 g/ha,[2]; [8],11%
"COC(=O)Nc1nc2ccccc2[nH]1 [carbendazim (XXXI) (30), carbendazim]",pest or weed control at 2.5 g/ha,[2]; [8],63%
"OC(Cc1ccccc1Cl)(Cn1nc[nH]c1=S)C1(Cl)CC1 (centres unmarked) [Compound of the formula (LXX) (69), 2-(1-chloro-cyclopropyl)-1-(2-chlorophenyl)-3-(5-mercapto-1,2,4-triazol-1-yl)-propan-2-ol]",pest or weed control at 5 g/ha,[1]; [7],0%
same,Efficacy in %,[4],70%
same,pest or weed control at 12.5 g/ha,[3],90%
"CO/N=C(/C(=O)OC)c1ccccc1COc1ccccc1C [kresoxim-methyl (XVI) (15), kresoxim-methyl]",pest or weed control at 1 g/ha,[1]; [7],35%
same,pest or weed control at 2 g/ha,[2]; [8],0%
"N#Cc1c[nH]cc1-c1cccc(Cl)c1Cl [fenpiclonil (XXVIII) (27), 4-(2,3-dichlorophenyl)-1H-pyrrole-3-carbonitrile]",pest or weed control at 2.5 g/ha,[2]; [8],0%
Cc1ccc(N(SC(F)(Cl)Cl)S(=O)(=O)N(C)C)cc1 [tolylfluanid],pest or weed control at 40 g/ha,[2]; [8],0%
"COCC(=O)N(c1c(C)cccc1C)C(C)C(=O)OC (centres unmarked) [metalaxyl (XXVII)(26), metalaxyl]",pest or weed control at 1 g/ha,[2]; [8],11%
dichlofluanid,% Efficacy,[2],0%
N#Cc1c(Cl)c(Cl)c(Cl)c(C#N)c1Cl [tetrachloro-isophthalo-dinitrile],pest or weed control at 40 g/ha,[2]; [8],0%
"CC(C)(C)C(=O)C(Oc1ccc(Cl)cc1)n1cncn1 (centres unmarked) [triadimefon (IX) (8), 1-(4-chloro-phenoxy)-3,3-dimethyl-1-(1,2,4-triazol-1-yl)-butan-2-one]",pest or weed control at 10 g/ha,[2]; [8],0%
"CCC(C)(NC(=O)c1cc(Cl)c(C)c(Cl)c1)C(=O)CCl (centres unmarked) [zoxamide (LXXIII)(72), zoxamide]",pest or weed control at 1 g/ha,[1]; [7],19%
same,pest or weed control at 1 g/ha,[2]; [8],0%
"CC(C)(C)C(O)(CCc1ccc(Cl)cc1)Cn1cncn1 (centres unmarked) [tebuconazole (IV) (3), tebuconazole]",Efficacy in %,[4],0%
same,pest or weed control at 2.5 g/ha,[2]; [8],0%
same,Efficacy in %,[5],50%
"CCCCNC(=O)n1c(NC(=O)OC)nc2ccccc21 [benomyl (LXXXIII) (30), benomyl]",pest or weed control at 5 g/ha,[2]; [8],50%
"S1SSSSSSS1 [sulphur (LXII) (62), sulphur]",pest or weed control at 25 g/ha,[1]; [7],0%
same,pest or weed control at 25 g/ha,[2]; [8],0%
"Cc1cc(C2CC2)nc(Nc2ccccc2)n1 [cyprodinil (XVIII) (17), cyprodinil]",Efficacy in %,[4],0%
same,pest or weed control at 12.5 g/ha,[3],0%
same,pest or weed control at 10 g/ha,[2]; [8],22%
"Cc1ccc(C(C)NC(=O)[C@@H](NC(=O)OC(C)C)C(C)C)cc1 (some centres unmarked) [iprovalicarb (LI) (50), iprovalicarb]",pest or weed control at 0.5 g/ha,[1]; [7],2%
same,pest or weed control at 2 g/ha,[2]; [8],0%
O=[N+]([O-])c1cc(C(F)(F)F)c(Cl)c([N+](=O)[O-])c1Nc1ncc(C(F)(F)F)cc1Cl [fluazinam],pest or weed control at 2.5 g/ha,[1]; [7],32%
same,pest or weed control at 2.5 g/ha,[2]; [8],0%
CSC1=N[C@@](C)(c2ccccc2)C(=O)N1Nc1ccccc1 [fenamidone],pest or weed control at 0.5 g/ha,[1]; [7],48%
same,pest or weed control at 0.5 g/ha,[2]; [8],0%
"CC1(C)CCC(Cc2ccc(Cl)cc2)C1(O)Cn1cncn1 (centres unmarked) [metconazole (XII) (11), metconazole]",Efficacy in %,[6],50%
CO/N=C(/C1=NOCCO1)c1ccccc1Oc1ncnc(Oc2ccccc2Cl)c1F [Compound of the formula (LXXII) (71)],pest or weed control at 12.5 g/ha,[3],0%
same,pest or weed control at 2 g/ha,[2]; [8],43%
same,Efficacy in %,[5],40%
"CCNC(=O)NC(=O)C(C#N)=NOC [cymoxanil (XLVI) (45), cymoxanil]",pest or weed control at 2.5 g/ha,[1]; [7],0%
same,pest or weed control at 5 g/ha,[2]; [8],15%
"Cc1noc(C)c1S(=O)(=O)n1c(Cl)nc2cc3c(cc21)OC(F)(F)O3 [Compound of the formula (LXXI) (70), 1-(3,5-dimethylisoxazole-4-sulphonyl)-2-chloro-6,6-difluoro-[1,3]-dioxolo-[4,5f]benzimidazole]",pest or weed control at 12.5 g/ha,[3],0%
same,pest or weed control at 1 g/ha,[2]; [8],0%
same,Efficacy in %,[5],0%
CC1COC(Cn2cncn2)(c2ccc(Oc3ccc(Cl)cc3)cc2Cl)O1 (centres unmarked) [difenoconazole],pest or weed control at 5 g/ha,[1]; [7],5%
same,pest or weed control at 5 g/ha,[2]; [8],14%
"COc1ccc(C(=CC(=O)N2CCOCC2)c2ccc(Cl)cc2)cc1OC [dimetomorph (XLV) (44), dimetomorph]",pest or weed control at 1 g/ha,[1]; [7],23%
same,pest or weed control at 1 g/ha,[2]; [8],0%
"CC1(C(=O)Nc2ccc(O)c(Cl)c2Cl)CCCCC1 [fenhexamid (LII) (51), fenhexamid]",pest or weed control at 5 g/ha,[2]; [8],10%
"CO/C=C(/C(=O)OC)c1ccccc1COc1cccc(C(F)(F)F)n1 [picoxystrobin (LXXXIII) (82), picoxystrobin]",pest or weed control at 2 g/ha,[2]; [8],0%
"CCCN(CCOc1c(Cl)cc(Cl)cc1Cl)C(=O)n1ccnc1 [prochloraz (XXI) (20), prochloraz]",pest or weed control at 10 g/ha,[1]; [7],0%
mancozeb [mancozeb (XLIII) (42)],% Efficacy,[1]; in vivo,23%
"CC12CC1(C)C(=O)N(c1cc(Cl)cc(Cl)c1)C2=O (centres unmarked) [procymidone (XLII) (41), procymidone]",pest or weed control at 5 g/ha,[2]; [8],0%
"CCCN(CC)CC1COC2(CCC(C(C)(C)C)CC2)O1 (centres unmarked) [spiroxamine (II) (1), 8-t-butyl-2-(N-ethyl-N-n-propyl-amino)-methyl-1,4-dioxaspiro-[5,4]-decane]",pest or weed control at 10 g/ha,[1]; [7],0%
same,pest or weed control at 5 g/ha,[2]; [8],0%
O=C1c2ccccc2C(=O)N1SC(Cl)(Cl)Cl [folpet],pest or weed control at 40 g/ha,[2]; [8],0%
C=CC1(C)OC(=O)N(c2cc(Cl)cc(Cl)c2)C1=O (centres unmarked) [vinclozolin],pest or weed control at 5 g/ha,[2]; [8],10%
"CC(C)(C)C(O)C(Oc1ccc(Cl)cc1)n1cncn1 (centres unmarked) [triadimenol (X) (9), 1-(4-chloro-phenoxy)-3,3-dimethyl-1-(1,2,4-triazol-1-yl)-butan-2-ol]",pest or weed control at 5 g/ha,[1]; [7],0%
same,Efficacy in %,[4],30%
same,pest or weed control at 2.5 g/ha,[2]; [8],0%
"N=C(N)NCCCCCCCCNCCCCCCCCNC(=N)N [(XIX) (18), N,N′″-(iminodi-8,1-octanediyl)bis-guanidine triacetate]",pest or weed control at 2.5 g/ha,[2]; [8],43%
"CCC1(C(=O)NC(C)c2ccc(Cl)cc2)C(C)C1(Cl)Cl (centres unmarked) [N-[1-(4-chloro-phenyl)-ethyl]-2,2-dichloro-1-ethyl-3-methyl-cyclopropane-carboxamide]",pest or weed control at 5 g/ha,[2]; [8],10%
"CC(C)NC(=O)N1CC(=O)N(c2cc(Cl)cc(Cl)c2)C1=O [iprodione (LXV) (64), iprodione]",pest or weed control at 5 g/ha,[2]; [8],0%
"O=C1C2CC=CCC2C(=O)N1SC(Cl)(Cl)Cl (centres unmarked) [captan (LV) (54), captan]",pest or weed control at 40 g/ha,[1]; [7],0%
"Cc1ccc(-c2c(Cl)nc(C#N)n2S(=O)(=O)N(C)C)cc1 [cyamidazosulfamid (LXX IV)(73), cyamidazosulfamid]",pest or weed control at 0.5 g/ha,[1]; [7],45%
same,pest or weed control at 1 g/ha,[2]; [8],0%
"CO/C=C(/C(=O)OC)c1ccccc1Oc1cc(Oc2ccccc2C#N)ncn1 [azoxystrobin (XVII) (16), azoxystrobin]",pest or weed control at 1 g/ha,[2]; [8],37%
Cc1ccc2nc3sc(=O)sc3nc2c1 [chinomethionat],pest or weed control at 20 g/ha,[1]; [7],0%
"O=[N+]([O-])/N=C1\NCCN1Cc1ccc(Cl)nc1 [imidacloprid (XXIV) (23), 1-[(6-chloro-3-pyridinyl)-methyl]-N-nitro-2-imidazolidinimine]",pest or weed control at 12.5 g/ha,[3],0%
"N#Cc1c[nH]cc1-c1cccc2c1OC(F)(F)O2 [fludioxonil (XXX) (29), fludioxonil]",pest or weed control at 12.5 g/ha,[3],0%
same,pest or weed control at 2.5 g/ha,[2]; [8],0%
